Experimental data reported in publication PMC5224920, “Assessing the mechanism and therapeutic potential of modulators of the human Mediator complex-associated protein kinases” (eLife, 2016).

Tested on: 12 single or co-culture in vitro tissue models of primary cells
Experiment: Culture/co-culture cell model panel, extracellular biomarkers (DiscoveRx); on CCL2/MCP-1: reference of the scale not given here; on CXCL8/IL-8: reference of the scale not given here; on CXCL9/MIG: reference of the scale not given here; on M-CSF: reference of the scale not given here; on SRB: reference of the scale not given here
Assay type: cell-based, human
[1] = /HDFNo unstimulated fibroblasts, 1.00E4 nM
[2] = /HDFNo unstimulated fibroblasts, 1.11E3 nM
[3] = /HDFNo unstimulated fibroblasts, 1.23E2 nM
[4] = /HDFNo unstimulated fibroblasts, 1.37E1 nM
[5] = /HDFNo unstimulated fibroblasts, 3.33E3 nM
[6] = /HDFNo unstimulated fibroblasts, 3.70E2 nM
[7] = /HDFNo unstimulated fibroblasts, 4.12E1 nM
[8] = /HDFNo unstimulated fibroblasts, 4.57E0 nM

## Cc1n[nH]c2ncc(C(=O)N3CCC[C@H]3c3ccc(Cl)cc3)cc12 [CMPD4]
/HDF3CT, 3.70E2 nM
  M-CSF: -0.052
  MMP-1: -0.021
  PAI-I: -0.054
  SRB: 0.014
  TIMP-2: 0.055
/HDF3CT, 4.12E1 nM
  CCL2/MCP-1: -0.025
  CD54/ICAM-1: -0.054
  CD106/VCAM-1: 0.009
  CXCL8/IL-8: -0.089
  CXCL9/MIG: -0.015
  CXCL10/IP-10: 0.023
  Collagen I: -0.036
  M-CSF: -0.072
  MMP-1: 0.049
  PAI-I: -0.006
  SRB: 0.013
  TIMP-2: 0.105
/HDF3CT, 4.57E0 nM
  CCL2/MCP-1: 0.071
  CD54/ICAM-1: -0.030
  CD106/VCAM-1: 0.022
  CXCL8/IL-8: -0.033
  CXCL9/MIG: 0.019
  CXCL10/IP-10: 0.003
  Collagen I: 0.009
  M-CSF: -0.072
  MMP-1: 0.086
  PAI-I: 0.017
  SRB: 0.023
  TIMP-2: 0.088
[1]
  CXCL8/IL-8: 0.032
  CXCL9/MIG: 0.127
  CXCL10/IP-10: 0.013
  CXCL11/I-TAC: -0.046
  EGFR: 0.051
  M-CSF: 0.0038
  MMP-1: -0.013
  PAI-I: -0.051
  Proliferation_72hr: 0.179
  SRB: 0.000631
  TIMP-1: 0.019
  TIMP-2: -0.228
[2]
  CXCL8/IL-8: -0.076
  CXCL9/MIG: -0.081
  CXCL10/IP-10: -0.021
  CXCL11/I-TAC: -0.035
  EGFR: -0.009
  M-CSF: -0.068
  MMP-1: -0.043
  PAI-I: -0.052
  Proliferation_72hr: 0.134
  SRB: 0.024
  TIMP-1: 0.00471
  TIMP-2: -0.013
[3]
  CXCL8/IL-8: -0.103
  CXCL9/MIG: -0.075
  CXCL10/IP-10: -0.039
  CXCL11/I-TAC: -0.045
  EGFR: -0.011
  M-CSF: 0.013
  MMP-1: -0.032
  PAI-I: 0.00163
  Proliferation_72hr: 0.087
  SRB: 0.010
  TIMP-1: -0.034
  TIMP-2: 0.076
[4]
  CXCL8/IL-8: -0.022
  CXCL9/MIG: -0.044
  CXCL10/IP-10: -0.0053
  CXCL11/I-TAC: -0.037
  EGFR: 0.035
  M-CSF: 0.000135
  MMP-1: -0.004
  PAI-I: -0.012
  Proliferation_72hr: 0.060
  SRB: 0.007
  TIMP-1: 0.000829
  TIMP-2: 0.075
[5]
  CXCL8/IL-8: -0.039
  CXCL9/MIG: -0.027
  CXCL10/IP-10: -0.048
  CXCL11/I-TAC: -0.031
  EGFR: 0.046
  M-CSF: -0.016
  MMP-1: -0.033
  PAI-I: -0.029
  Proliferation_72hr: 0.157
  SRB: 0.00444
  TIMP-1: 0.014
  TIMP-2: -0.121
[6]
  CXCL8/IL-8: -0.076
  CXCL9/MIG: -0.059
  CXCL10/IP-10: -0.040
  CXCL11/I-TAC: -0.00462
  EGFR: -0.018
  M-CSF: -0.00531
  MMP-1: -0.010
  PAI-I: -0.018
  Proliferation_72hr: 0.139
  SRB: 0.020
  TIMP-1: 0.003
  TIMP-2: 0.082
[7]
  CXCL8/IL-8: -0.024
  CXCL9/MIG: -0.065
  CXCL10/IP-10: -0.026
  CXCL11/I-TAC: -0.032
  EGFR: 0.00663
  M-CSF: -0.024
  MMP-1: -0.026
  PAI-I: -0.010
  Proliferation_72hr: 0.102
  SRB: 0.013
  TIMP-1: -0.020
  TIMP-2: 0.059
[8]
  CXCL8/IL-8: 0.034
  CXCL9/MIG: 0.056
  CXCL10/IP-10: 0.00467
  CXCL11/I-TAC: -0.00186
  EGFR: 0.019
  M-CSF: -0.012
  MMP-1: 0.055
  PAI-I: 0.075
  Proliferation_72hr: 0.072
  SRB: 0.043
  TIMP-1: 0.048
  TIMP-2: -0.057
/HDFNo, 1.00E4 nM
  CCL2/MCP-1: 0.040
  CD54/ICAM-1: 0.094
  CD106/VCAM-1: 0.027
  Collagen I: 0.067
  Collagen III: -0.015
/HDFNo, 1.11E3 nM
  CCL2/MCP-1: 0.00326
  CD54/ICAM-1: -0.048
  CD106/VCAM-1: -0.067
  Collagen I: -0.022
  Collagen III: 0.013
/HDFNo, 1.23E2 nM
  CCL2/MCP-1: -0.009
  CD54/ICAM-1: -0.013
  CD106/VCAM-1: -0.096
  Collagen I: -0.065
  Collagen III: 0.012
/HDFNo, 1.37E1 nM
  CCL2/MCP-1: -0.022
  CD54/ICAM-1: -0.024
  CD106/VCAM-1: 0.020
  Collagen I: -0.080
  Collagen III: 0.026
/HDFNo, 3.33E3 nM
  CCL2/MCP-1: -0.021
  CD54/ICAM-1: -0.005
  CD106/VCAM-1: -0.034
  Collagen I: -0.014
  Collagen III: 0.025
/HDFNo, 3.70E2 nM
  CCL2/MCP-1: -0.005
  CD54/ICAM-1: -0.029
  CD106/VCAM-1: -0.058
  Collagen I: -0.055
  Collagen III: 0.000891
/HDFNo, 4.12E1 nM
  CCL2/MCP-1: 0.007
  CD54/ICAM-1: -0.036
  CD106/VCAM-1: -0.047
  Collagen I: -0.086
  Collagen III: 0.030
/HDFNo, 4.57E0 nM
  CCL2/MCP-1: 0.025
  CD54/ICAM-1: 0.028
  CD106/VCAM-1: 0.010
